Test [1] has as its target T1, recombinant human B1 receptors (Homo sapiens, UniProt P46663).
T1 construct: host or cells: CHO (CHO-B1)
T1 sequence (P46663 1-353): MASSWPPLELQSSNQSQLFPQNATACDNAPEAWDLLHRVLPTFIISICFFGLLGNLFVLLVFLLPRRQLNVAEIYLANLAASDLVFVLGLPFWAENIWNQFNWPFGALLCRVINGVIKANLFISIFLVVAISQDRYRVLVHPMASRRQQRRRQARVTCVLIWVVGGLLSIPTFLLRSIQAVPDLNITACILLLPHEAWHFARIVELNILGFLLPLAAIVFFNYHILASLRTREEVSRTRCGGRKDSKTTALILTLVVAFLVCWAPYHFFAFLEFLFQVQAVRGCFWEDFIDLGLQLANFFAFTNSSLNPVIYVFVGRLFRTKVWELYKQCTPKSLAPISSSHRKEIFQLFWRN
The experiment in a line: Functional assay: antagonist potency by cytosolic calcium measurement in CHO-B1 cells (agonist LysDABK). Type of test: cell-based. The settings on record: CHO-B1 cells, LysDABK at EC80, fluo-4 [Ca2+]i; read-out: B1 func. On the procedure:
Assessment of Antagonist Potency at B1 and B2 Receptors In Vitro by Measurement of Cytosolic Calcium Ion Concentration with a Plate Reader Fluorimeter in Cells Expressing Recombinant Human B1 or B2 Receptors
Chinese hamster ovary (CHO) cells stably expressing recombinant human B1 (CHO-B1, Euroscreen) or B2 (CHO-B2, Perkin-Elmer) receptors were cultured in Dulbecco's Modified Eagle's Medium (DMEM) containing 10% Fetal Calf Serum (FCS), 100 U/ml penicillin, 0.1 mg/ml streptomycin, 0.25 μg/ml amphotericin B, 1% Minimum Essential Medium Eagle (MEM), non essential amino acid solution, 600 μg/ml G418, 1% pyruvate (for the B2 cell line). Cells were kept at 37° C. in a humidified incubator in an atmosphere of 5% CO2/95% air and were passaged 1:4 three times a week. Cells were plated at 1.5-2.5×10^4 cell/well on standard 96-well microplates, measurements of cytosolic calcium ion concentration ([Ca^2+]i) were carried out 1-2 days after cell plating.
Measurements of [Ca^2+]i were carried out on CHO-B1 and CHO-B2 cells stably expressing human B1 and B2 receptors, respectively. Cells were grown in standard 96-well microplates and before the measurement were loaded with a fluorescent Ca^2+-sensitive dye, fluo-4/AM (2 μM): after removing the culture medium the dye was added to the cells (dissolved in assay buffer: 145 mM NaCl, 5 mM KCl, 2 mM MgCl2, 2 mM CaCl2, 10 mM HEPES, 20 mM D-glucose, 2 mM probenecid, 100 μl/well) and cells were incubated at 37° C. in a humidified incubator in an atmosphere of 5% CO2/95% air for 40-120 min. To stop dye loading cells were washed twice with assay buffer. After washing, various concentrations of the test compounds (diluted in extracellular medium from a DMSO stock solution, final DMSO concentration was <0.1%) or buffer were added to each well depending on the experimental setup. After incubation at 37° C. for 20-25 min. baseline and agonist-evoked changes of [Ca^2+]i were measured column by column with a plate reader fluorimeter (Fluoroskan Ascent, Labsystems). Excitation and detection of emission was carried out from the bottom of the plate. Filters used for Fluo-4: excitation filter—485 nm, emission filter—538 nm. The whole measurement process was performed at 37° C. and was controlled by custom software. Inhibitory potency of the test compounds was assessed by measuring the reduction in the agonist-evoked [Ca^2+]i-elevation in the presence of different concentrations of the compounds. The agonists were LysDABK for CHO-B1, and bradykinin for CHO-B2 cells. Agonists were applied at an EC80 concentration, the EC80-values were derived from daily determined dose-response curves. Fluorescence data were expressed as ΔF/F (fluorescence change normalized to baseline). All treatments on a single plate were measured in multiple wells. Data from all wells with the same treatment were averaged and the average values were used for analysis. Inhibitory potency of a compound at a single concentration point was expressed as percent inhibition of the control agonist response. Sigmoidal concentration-inhibition curves were fitted to the data (derived from at least three independent experiments) and IC50-values were determined as the concentration that produces half of the maximal inhibition caused by the compound.

The target in test [2] is T2, human recombinant bradykinin B1 receptor (Homo sapiens, UniProt P46663).
T2 construct: purchased Euroscreen ES-091; host or cells: CHO cells
T2 sequence (P46663 1-353): T1 sequence (P46663 1-353)
Briefly: Human recombinant bradykinin B1 receptor binding. The settings on record: CHO cell membranes, [3H]-[Des-Arg10] Kallidin radioligand; read-out: B1 binding. On the procedure:
Receptor Binding Assays 1. Human Recombinant Bradykinin B1 Receptor Binding
Binding assays were carried out on human recombinant bradykinin) receptors (expressed in CHO cells) according to the Euroscreen Technical Data Sheet (Cat.No.:ES-091). 20 μg protein/tube was incubated with [3,4-prolyl-3,4-^3H(N)]-[Des-Arg^10] Kallidin as radioligand. Non specific binding was determined in the presence of 10 μM Lys-des-Arg^9-Bradykinin. The final incubation volume was 250 μl. Samples were incubated for 15 min. at 25° C. then were rapidly vacuum filtered through GF/B filters presoaked for at least 1 h in 0.5% PEI. Radioactivity was determined by liquid scintillation spectroscopy.

We go through 19 molecules from US8481527B2, “Benzamide derivatives as bradykinin antagonists” (Richter Gedeon Nyrt., priority 2006, dated 2013).

Where a name gives a salt, the structure may show the parent alone. Some results are limits rather than exact numbers.

As to `CCN(CC)CCN1CCN(C(=O)CNC(=O)c2ccc(S(=O)(=O)Nc3ccccc3Oc3ccc(Cl)cc3Cl)cc2)CC1` [Example 1.3, 4-[2-(2,4-Dichloro-phenoxy)-phenylsulfamoyl]-N-{2-[4-(2-diethylamino-ethyl)-piperazin-1-yl]-2-oxo-ethyl}-benzamide], the IC50 in test [1] is below 20 nM. The Ki in test [2] was below 20 nM.

With `O=C(NCC(=O)N1CCNCC1)c1ccc(S(=O)(=O)Nc2ccccc2Oc2ccc(Cl)cc2Cl)cc1` [Example 11.4, 4-[2-(2,4-Dichloro-phenoxy)-phenylsulfamoyl]-N-(2-oxo-2-piperazin-1-yl-ethyl)-benzamide hydrochloride], in test [1], the IC50 was below 20 nM. The Ki in test [2] is below 20 nM.

Turning to `O=C(NCC(=O)N1CCC(CCN2CCCC2)CC1)c1ccc(S(=O)(=O)Nc2ccccc2C(=O)c2ccccc2)cc1` [Example 3.15, 4-(2-Benzoyl-phenylsulfamoyl)-N-{2-oxo-2-[4-(2-pyrrolidin-1-yl-ethyl)-piperidin-1-yl]-ethyl}-benzamide], the IC50 in test [1] is below 20 nM. The Ki in test [2] was below 20 nM.

Consider `O=C(NCC(=O)N1CCC(O)CC1)c1ccc(S(=O)(=O)Nc2ccccc2Oc2ccccc2)cc1` [Example 2.10, N-[2-(4-Hydroxy-piperidin-1-yl)-2-oxo-ethyl]-4-(2-phenoxy-phenylsulfamoyl)-benzamide], for which the IC50 in test [1] was in the range of 20 to 100 nM. Besides, the Ki in test [2] is 20 to 100 nM.

As to `O=C(NCC(=O)N1CCN(CCN2CCCC2)CC1)c1ccc(S(=O)(=O)Nc2ccccc2Oc2ccccc2)cc1` [Example 2.2, N-{2-Oxo-2-[4-(2-pyrrolidin-1-yl-ethyl)-piperazin-1-yl]-ethyl}-4-(2-phenoxy-phenylsulfamoyl)-benzamide], the IC50 in test [1] was below 20 nM. Further, the Ki in test [2] is below 20 nM.

In the case of `O=C(NCC(=O)N1CCC(CCN2CCCC2)CC1)c1ccc(S(=O)(=O)Nc2ccccc2Oc2ccccc2)cc1` [Example 2.7, N-{2-Oxo-2-[4-(2-pyrrolidin-1-yl-ethyl)-piperidin-1-yl]-ethyl}-4-(2-phenoxy-phenylsulfamoyl)-benzamide], in test [1], the IC50 is below 20 nM. Also, in test [2], the Ki is below 20 nM.

In the case of `CN1CCC(N2CCN(C(=O)CNC(=O)c3ccc(S(=O)(=O)Nc4ccccc4Oc4ccccc4)cc3)CC2)CC1` [Example 2.34, N-{2-[4-(1-Methyl-piperidin-4-yl)-piperazin-1-yl]-2-oxo-ethyl}-4-(2-phenoxy-phenylsulfamoyl)-benzamide], the IC50 in test [1] is below 20 nM. In addition, in test [2], the Ki is below 20 nM.

Turning to `O=C(NCC(=O)N1CCNCC1)c1ccc(S(=O)(=O)Nc2ccccc2C(=O)c2ccccc2)cc1` [Example 11.7, 4-(2-Benzoyl-phenylsulfamoyl)-N-(2-oxo-2-piperazin-1-yl-ethyl)-benzamide hydrochloride], in test [1], the IC50 was below 20 nM. Further, the Ki in test [2] was below 20 nM.

For the molecule `O=C(NCC(=O)N1CCN(CCN2CCCC2)CC1)c1ccc(S(=O)(=O)Nc2ccccc2Oc2ccc(Cl)cc2Cl)cc1` [Example 1.1, 4-[2-(2,4-Dichloro-phenoxy)-phenylsulfamoyl]-N-{2-oxo-2-[4-(2-pyrrolidin-1-yl-ethyl)-piperazin-1-yl]-ethyl}-benzamide], the IC50 in test [1] is below 20 nM. Also, the Ki in test [2] was below 20 nM.

As to `O=C(NCC(=O)N1CCN(CCCN2CCOCC2)CC1)c1ccc(S(=O)(=O)Nc2ccccc2Oc2ccc(Cl)cc2Cl)cc1` [Example 1.12, 4-[2-(2,4-Dichloro-phenoxy)-phenylsulfamoyl]-N-{2-[4-(3-morpholin-4-yl-propyl)-piperazin-1-yl]-2-oxo-ethyl}-benzamide], in test [1], the IC50 is below 20 nM. Further, in test [2], the Ki is below 20 nM.

Take `CC1CCN(C(=O)CNC(=O)c2ccc(S(=O)(=O)Nc3ccccc3C(=O)c3ccccc3)cc2)CC1` [Example 3.7, 4-(2-Benzoyl-phenylsulfamoyl)-N-[2-(4-methyl-piperidin-1-yl)-2-oxo-ethyl]-benzamide]: the IC50 in test [1] is below 20 nM. In addition, the Ki in test [2] was below 20 nM.

As for `CN(C)CCCN1CCN(C(=O)CNC(=O)c2ccc(S(=O)(=O)Nc3ccccc3Oc3ccc(Cl)cc3Cl)cc2)CC1` [Example 1.10, 4-[2-(2,4-Dichloro-phenoxy)-phenylsulfamoyl]-N-{2-[4-(3-dimethylamino-propyl)-piperazin-1-yl]-2-oxo-ethyl}-benzamide], in test [1], the IC50 was below 20 nM. Also, the Ki in test [2] was below 20 nM.

For the molecule `O=C(NCC(=O)N1CCCNCC1)c1ccc(S(=O)(=O)Nc2ccccc2Oc2ccccc2)cc1` [Example 11.1, N-(2-[1,4]-Diazepan-1-yl-2-oxo-ethyl)-4-(2-phenoxy-phenylsulfamoyl)-benzamide hydrochloride], in test [1], the IC50 is below 20 nM. In addition, in test [2], the Ki lay within 20 to 100 nM.

On to `CN(C)CCCN1CCN(C(=O)CNC(=O)c2ccc(S(=O)(=O)Nc3ccccc3C(=O)c3ccccc3)cc2)CC1` [Example 3.14, 4-(2-Benzoyl-phenylsulfamoyl)-N-{2-[4-(3-dimethylamino-propyl)-piperazin-1-yl]-2-oxo-ethyl}-benzamide], for which the IC50 in test [1] is below 20 nM. For the same molecule, the Ki in test [2] was below 20 nM.

For `CCN(CC)CCN1CCN(C(=O)CNC(=O)c2ccc(S(=O)(=O)Nc3ccccc3Oc3ccccc3)cc2)CC1` [Example 2.4, N-{2-[4-(2-Diethylamino-ethyl)-piperazin-1-yl]-2-oxo-ethyl}-4-(2-phenoxy-phenylsulfamoyl)-benzamide], the IC50 in test [1] is below 20 nM. Besides, in test [2], the Ki is below 20 nM.

`CN(C)CCN1CCN(C(=O)CNC(=O)c2ccc(S(=O)(=O)Nc3ccccc3C(=O)c3ccccc3)cc2)CC1` [Example 3.2, 4-(2-Benzoyl-phenylsulfamoyl)-N-{2-[4-(2-dimethylamino-ethyl)-piperazin-1-yl]-2-oxo-ethyl}-benzamide]: in test [1], the IC50 was below 20 nM. In addition, the Ki in test [2] is below 20 nM.

Consider `CN(C)CCN1CCN(C(=O)CNC(=O)c2ccc(S(=O)(=O)Nc3ccccc3Oc3ccc(Cl)cc3Cl)cc2)CC1` [Example 1.2, 4-[2-(2,4-Dichloro-phenoxy)-phenylsulfamoyl]-N-{2-[4-(2-dimethylamino-ethyl)-piperazin-1-yl]-2-oxo-ethyl}-benzamide], for which the IC50 in test [1] was below 20 nM. Further, the Ki in test [2] was below 20 nM.

On to `NC(=O)C1CCN(C(=O)CNC(=O)c2ccc(S(=O)(=O)Nc3ccccc3C(=O)c3ccccc3)cc2)CC1` [Example 3.17, 1-{2-[4-(2-Benzoyl-phenylsulfamoyl)-benzoylamino]-acetyl}-piperidine-4-carboxylic acid amide], for which the IC50 in test [1] is below 20 nM. In addition, the Ki in test [2] was below 20 nM.

As to `O=C(NCC(=O)N1CCCN(CCCN2CCOCC2)CC1)c1ccc(S(=O)(=O)Nc2ccccc2Oc2ccc(Cl)cc2Cl)cc1` [Example 1.8, 4-[2-(2,4-Dichloro-phenoxy)-phenylsulfamoyl]-N-{2-[4-(3-morpholin-4-yl-propyl)-[1,4]diazepan-1-yl]-2-oxo-ethyl}-benzamide], the IC50 in test [1] was below 20 nM. Besides, the Ki in test [2] is below 20 nM.
